Test results published in patent publication US12161649B2, “Inhibitors of EGFR and methods of use thereof” (DANA-FARBER CANCER INSTITUTE, INC., priority 2018, dated 2024).
pEC50, pIC50: −log10 of the molar value. Read-outs that look alike come from different tables or passages of the source.

What was measured:
T790M/L858R Ba/F3 cells = target: T1, T790M/L858R Ba/F3 cells (Homo sapiens, UniProt P00533, T790M/L858R, cells depend on it); assay: Ba/F3 cell proliferation (MTS assay); assay type: cell-based, murine; conditions: antiproliferative activity
T1 construct: The constructs were shuttled into the retroviral vector JP1540 using the BD Creator® System (BD Biosciences)
Experimental: The EGFR mutant L858R, Del E746_A750, L858R/T790M, DelE746_A750/T790M, L858R/T790M/C797S and Del/T790M/C797S Ba/F3 cells were previously described (Zhou et al., Nature 462, (2009), 1070-1074). All cell lines were maintained in RPMI 1640 (Cellgro; Mediatech Inc., Herndon, CA) supplemented with 10% FBS 100 units/mL penicillin, 100 units/mL streptomycin, and 2 mM glutamine. L858R cells were maintained in ACL-4 media (Invitrogen, Carlsbad, CA) supplemented with 5% FBS, 100 units/mL penicillin, 100 units/mL streptomycin, and 2 mM glutamine. The EGFR 1941R mutation was introduced via site directed mutagenesis using the Quick Change Site-Directed Mutagenesis kit (Stratagene; La Jolla, CA) according to the manufacturer's instructions. All constructs were confirmed by DNA sequencing. The constructs were shuttled into the retroviral vector JP1540 using the BD Creator® System (BD Biosciences). Ba/F3 cells were infected with retrovirus and according to standard protocols, as described previously (Zhou 2009). Stable clones were obtained by selection in puromycin (2 μg/ml).
Growth and inhibition of growth was assessed by MTS assay and was performed according to previously established methods (Zhou 2009). The MTS assay is a colorimetric method for determining the number of viable cells that is based on the bioreduction of MTS by cells to a formazan product that is soluble in cell culture medium and can be detected spectrophotometrically. Ba/F3 cells of different EGFR genotypes were exposed to treatment and the number of cells used per experiment determined empirically and has been previously established (Zhou 2009). All experimental points were set up in six wells and all experiments were repeated at least three times. […] The curves were fitted using a non-linear regression model with a sigmoidal dose response.

[1] = target: T2, recombinant EGFR 790M/L858R kinase (Homo sapiens, UniProt P00533, L858R/T790M); assay: HTRF-based EGFR biochemical assay
T2 construct: Constructs spanning residues 696-1022 of the human EGFR; GST (cleaved yes); made in house; host or cells: Sf9 insect cells
Experimental: EGFR biochemical assays are carried out using a homogeneous time-resolved fluorescence (HTRF) assay. The reaction mixtures contain biotin-Lck-peptide substrate, wild type, or mutant EGFR enzyme in reaction buffer. Enzyme concentrations are adjusted to accommodate varying kinase activity and ATP concentrations. Compounds of the present application are diluted into the assay mixture and IC50 values are determined using 12-point inhibition curves.
Constructs spanning residues 696-1022 of the human EGFR (including wild type and L858R, L858R/T790M, T790M, and T790M/V948R mutant sequences) were prepared in a GST-fusion format using the pTriEX system (Novagen) for expression in Sf9 insect cells essentially as described (Yun et al., PNAS 105, 2070-2075 (2008): Yun et al., Cancer Cell 11, 217-227 (2007)). EGFR kinase proteins were purified by glutathione-affinity chromatography followed by size-exclusion chromatography after cleavage with TEV or thrombin to remove the GST fusion partner following established procedures. (Yun 2008; Yun 2007).
EGFR biochemical assays were carried out using a homogeneous time-resolved fluorescence (HTRF) assay as described previously. The reaction mixtures contained 1 μM biotin-Lck-peptide substrate, wild type or mutant EGFR enzyme in reaction buffer (50 mM HEPES pH 7.1, 10 mM MgCl2, 0.01% BSA, 1 mM TCEP and 0.1 mM […]) at a final volume of 10 μL. Enzyme concentrations were adjusted to accommodate varying kinase activity and ATP concentrations (0.2-0.4 nM L858R/T790M; or 2-4 nM L858R, or 2-4 nM T790M, or 40 nM WT). All reactions were carried out at room temperature in white ProxiPlate™ 384-well Plus plates (PerkinElmer) and were quenched with 5 μL of 0.2 M EDTA at 60 min. Five μL per well of the detection reagent containing 2.5 ng PT66K (Cis-bio) and 0.05 μg SAXL (Prozyme) were added, and the plates were then incubated at room temperature for 1 hour and read with an EnVision plate reader. For IC50 determinations, compounds of the present application were diluted into assay mixture (final DMSO 0.5%), and IC50 values were determined by 12-point inhibition curves (from 50 to 0.000282 μM) in duplicate under the assay conditions as described above.

[2] = absence of cetuximab, read-out: Ba/F3 cellular activity (EC50) T790M/L858R
[3] = read-out: Ba/F3 cellular activity (EC50) T790M/L858R + Cetuximab, presence of 1 μg/mL cetuximab

T1 sequence (P00533 whole entry T790M/L858R): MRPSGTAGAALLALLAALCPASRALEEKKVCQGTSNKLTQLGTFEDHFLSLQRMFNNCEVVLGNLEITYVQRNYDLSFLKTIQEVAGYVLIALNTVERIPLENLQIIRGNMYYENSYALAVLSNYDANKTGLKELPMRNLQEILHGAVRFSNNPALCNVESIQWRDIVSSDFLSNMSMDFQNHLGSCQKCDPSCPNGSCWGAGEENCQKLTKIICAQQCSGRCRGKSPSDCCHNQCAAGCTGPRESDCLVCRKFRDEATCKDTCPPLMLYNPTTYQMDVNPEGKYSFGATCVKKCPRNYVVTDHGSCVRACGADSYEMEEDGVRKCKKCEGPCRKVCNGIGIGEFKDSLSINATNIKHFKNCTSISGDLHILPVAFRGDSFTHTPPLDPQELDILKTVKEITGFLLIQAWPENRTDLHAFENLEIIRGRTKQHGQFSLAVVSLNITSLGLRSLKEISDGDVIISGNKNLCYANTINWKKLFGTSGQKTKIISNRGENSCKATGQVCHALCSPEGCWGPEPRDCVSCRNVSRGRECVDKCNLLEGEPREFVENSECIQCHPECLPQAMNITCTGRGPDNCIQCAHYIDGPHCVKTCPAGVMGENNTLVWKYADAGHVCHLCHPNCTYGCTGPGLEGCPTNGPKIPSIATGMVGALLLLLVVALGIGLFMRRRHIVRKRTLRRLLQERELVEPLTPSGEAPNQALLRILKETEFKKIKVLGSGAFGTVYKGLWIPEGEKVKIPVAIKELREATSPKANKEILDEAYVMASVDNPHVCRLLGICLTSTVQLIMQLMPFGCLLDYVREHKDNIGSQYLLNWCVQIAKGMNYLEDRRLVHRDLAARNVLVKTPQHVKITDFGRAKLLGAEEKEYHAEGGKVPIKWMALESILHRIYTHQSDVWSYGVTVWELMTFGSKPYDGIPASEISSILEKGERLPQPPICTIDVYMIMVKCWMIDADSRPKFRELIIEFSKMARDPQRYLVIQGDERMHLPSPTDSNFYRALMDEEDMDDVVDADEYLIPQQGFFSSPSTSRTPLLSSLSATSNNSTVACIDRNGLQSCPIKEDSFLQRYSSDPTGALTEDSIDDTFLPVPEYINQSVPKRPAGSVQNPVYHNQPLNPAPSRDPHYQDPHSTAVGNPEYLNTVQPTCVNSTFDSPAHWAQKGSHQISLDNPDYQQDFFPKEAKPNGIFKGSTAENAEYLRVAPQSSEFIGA
T2 sequence (P00533 696-1022 T790M/L858R): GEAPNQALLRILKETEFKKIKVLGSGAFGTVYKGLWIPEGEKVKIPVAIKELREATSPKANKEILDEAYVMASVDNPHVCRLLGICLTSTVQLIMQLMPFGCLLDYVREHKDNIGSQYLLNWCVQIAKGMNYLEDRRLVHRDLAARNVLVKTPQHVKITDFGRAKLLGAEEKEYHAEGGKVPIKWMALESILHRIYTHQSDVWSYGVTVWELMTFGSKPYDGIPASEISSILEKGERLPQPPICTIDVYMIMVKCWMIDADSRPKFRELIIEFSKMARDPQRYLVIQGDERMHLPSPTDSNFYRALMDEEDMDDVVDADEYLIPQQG

Row | Compound | pEC50 (T790M/L858R Ba/F3 cells; [2]) | pEC50 (T790M/L858R Ba/F3 cells; [3]) | pIC50 [1]
1 | CN1CCN(c2cccc(C(=O)N[C@H]3CNc4ccc(F)cc4N(Cc4ccccc4)C3=O)c2)CC1 [Compound I-4, (S)-N-(1-benzyl-8-fluoro-2-oxo-2,3,4,5-tetrahydro-1H-benzo[b][1,4]diazepin-3-yl)-3-(4-methylpiperazin-1-yl)benzamide] | < 6.12 | < 6.12 | < 6.12
2 | O=C(Cc1ccc(N2CCOCC2)cc1)N[C@H]1CNc2ccc(F)cc2N(Cc2ccccc2)C1=O [Compound I-3, (S)-N-(1-benzyl-8-fluoro-2-oxo-2,3,4,5-tetrahydro-1H-benzo[b][1,4]diazepin-3-yl)-2-(4-morpholinophenyl)acetamide] | < 6.12 | < 6.12 | < 6.12
3 | COc1cc(N2CCOCC2)ccc1C(=O)N[C@H]1CNc2ccc(F)cc2N(Cc2ccccc2)C1=O [Compound I-5, (S)-N-(1-benzyl-8-fluoro-2-oxo-2,3,4,5-tetrahydro-1H-benzo[b][1,4]diazepin-3-yl)-2-methoxy-4-morpholinobenzamide] | < 6.12 | < 6.12 | < 6.12
4 | CN1CCN(c2ccc(-c3ccc4c(c3)CN([C@H]3CNc5ccc(F)cc5N(Cc5ccccc5)C3=O)C4=O)cc2)CC1 [Compound I-14, (S)-1-benzyl-8-fluoro-3-(5-(4-(4-methylpiperazin-1-yl)phenyl)-1-oxoisoindolin-2-yl)-1,3,4,5-tetrahydro-2H-benzo[b][1,4]diazepin-2-one] | < 6.12 | > 6.60 | > 6.60
5 | CN1CCN(c2ccnc(C(=O)N[C@H]3CNc4ccc(F)cc4N(Cc4ccccc4)C3=O)c2)CC1 [Compound I-6, (S)-N-(1-benzyl-8-fluoro-2-oxo-2,3,4,5-tetrahydro-1H-benzo[b][1,4]diazepin-3-yl)-4-(4-methylpiperazin-1-yl)picolinamide] | < 6.12 | < 6.12 | < 6.12
6 | COc1ccc(C2=CCNCC2)cc1C(=O)N[C@H]1CNc2ccc(F)cc2N(Cc2ccccc2)C1=O [Compound I-7, (S)-N-(1-benzyl-8-fluoro-2-oxo-2,3,4,5-tetrahydro-1H-benzo[b][1,4]diazepin-3-yl)-2-methoxy-5-(1,2,3,6-tetrahydropyridin-4-yl)benzamide] | < 6.12 | < 6.12 | < 6.12

More lines, now with the values ahead:

Row | pEC50 (T790M/L858R Ba/F3 cells; [2]) | pEC50 (T790M/L858R Ba/F3 cells; [3]) | pIC50 [1] | Compound
7 | < 6.12 | < 6.12 | < 6.12 | O=C(N[C@H]1CNc2ccc(F)cc2N(Cc2ccccc2)C1=O)c1ccc(N2CCOCC2)cn1 [Compound I-8, (S)-N-(1-Benzyl-8-fluoro-2-oxo-2,3,4,5-tetrahydro-1H-benzo[b][1,4]diazepin-3-yl)-5-morpholinopicolinamide]
8 | < 6.12 | > 6.60 | > 6.60 | O=C1[C@@H](N2Cc3ccc(F)cc3C2=O)CNc2ccc(F)cc2N1Cc1ccccc1 [Compound I-10, (S)-1-benzyl-8-fluoro-3-(6-fluoro-1-oxoisoindolin-2-yl)-1,3,4,5-tetrahydro-2H-benzo[b][1,4]diazepin-2-one]
9 | < 6.12 | > 6.60 | > 6.60 | CN1CCN(c2ccc(-c3ccc4c(c3)C(=O)N([C@H]3CNc5ccc(F)cc5N(Cc5ccccc5)C3=O)C4)cc2)CC1 [Compound I-11, (S)-1-benzyl-8-fluoro-3-(6-(4-(4-methylpiperazin-1-yl)phenyl)-1-oxoisoindolin-2-yl)-1,3,4,5-tetrahydro-2H-benzo[b][1,4]diazepin-2-one]
10 | < 6.12 | < 6.12 | < 6.12 | CN1CCN(c2ccc(NC(=O)N[C@H]3CNc4ccc(F)cc4N(Cc4ccccc4)C3=O)cc2)CC1 [Compound I-2, (S)-1-(1-benzyl-8-fluoro-2-oxo-2,3,4,5-tetrahydro-1H-benzo[b][1,4]diazepin-3-yl)-3-(4-(4-methylpiperazin-1-yl)phenyl)urea]
11 | < 6.12 | < 6.12 | < 6.12 | CN1CCN(c2ccc(C(=O)N[C@H]3CNc4ccc(F)cc4N(Cc4ccccc4)C3=O)cc2)CC1 [Compound I-1, (S)-N-(1-benzyl-8-fluoro-2-oxo-2,3,4,5-tetrahydro-1H-benzo[b][1,4]diazepin-3-yl)-4-(4-methylpiperazin-1-yl)benzamide]
12 | < 6.12 | < 6.12 | < 6.12 | O=C(Cc1ccc(-n2cnnn2)cc1)N[C@H]1CNc2ccc(F)cc2N(Cc2ccccc2)C1=O [Compound I-9, (S)-2-(4-(1H-tetrazol-1-yl)phenyl)-N-(1-benzyl-8-fluoro-2-oxo-2,3,4,5-tetrahydro-1H-benzo[b][1,4]diazepin-3-yl)acetamide]
13 | < 6.12 | < 6.12 | < 6.12 | CN1CCN(c2ccc3c(c2)C(=O)N([C@H]2CNc4ccc(F)cc4N(Cc4ccccc4)C2=O)C3)CC1 [Compound I-13, (S)-1-benzyl-8-fluoro-3-(6-(4-methylpiperazin-1-yl)-1-oxoisoindolin-2-yl)-1,3,4,5-tetrahydro-2H-benzo[b][1,4]diazepin-2-one]
